Experimental data published in US8575156B2, “Cyclic inhibitors of 11β-hydroxysteroid dehydrogenase 1” (Vitae Pharmaceuticals, Inc., priority 2007, dated 2013).
Like-named read-outs stand apart in the source and are kept apart here.

Molecular target: 11β-HSD1 (Homo sapiens, UniProt P28845)
Experiment: biochemical
Conditions: for IC50: IC50 Range, Biological Test Example 1, microsomes from CHO cells overexpressing human 11β-HSD1
[1] = read-out: Average % inhibition at 111.1 nM, Biological Test Example 1, 111.1 nM compound
[2] = read-out: Average % inhibition at 100 nM, Biological Test Example 1, 100 nM compound
[3] = read-out: Average % inhibition at 100 nM

Chain of 11β-HSD1 (P28845 whole entry): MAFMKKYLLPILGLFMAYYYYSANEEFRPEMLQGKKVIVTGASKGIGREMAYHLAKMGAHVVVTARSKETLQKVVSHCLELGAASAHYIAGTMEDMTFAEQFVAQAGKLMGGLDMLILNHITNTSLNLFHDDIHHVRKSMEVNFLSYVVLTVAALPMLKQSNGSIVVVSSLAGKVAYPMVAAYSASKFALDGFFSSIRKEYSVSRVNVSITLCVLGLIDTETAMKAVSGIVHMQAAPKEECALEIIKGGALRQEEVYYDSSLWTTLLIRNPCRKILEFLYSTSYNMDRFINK

Row | SMILES | IC50 | inhibition at 0.1111 µM [1] | inhibition at 0.1 µM [2] | inhibition at 0.1 µM [3] | inhibition at 0.1111 µM (read-out: Average % inhibition at 111.1 nM)
1 | O=C1OC(CCO)(c2ccc(F)cc2)CCN1c1cccc(-c2ccc(F)cc2Cl)n1 (centres unmarked) [EXAMPLE 118, 3-(6-(2-chloro-4-fluorophenyl)pyridin-2-yl)-6-(4-fluorophenyl)-6-(2-hydroxyethyl)-1,3-oxazinan-2-one] | < 100 nM | 96.8% |  |  | 
2 | CC1(c2ccccc2)CCN(c2nc(-c3ccccc3)cs2)C(=O)O1 (centres unmarked) [EXAMPLE 121, 6-methyl-6-phenyl-3-(4-phenylthiazol-2-yl)-1,3-oxazinan-2-one] | 100 to 1000 nM | 34.2% |  |  | 
3 | C[C@@H](C1CCCCC1)N1CC[C@](CCCO)(c2ccc(F)cc2)OC1=O [EXAMPLE 122, (R)-3-((S)-1-cyclohexylethyl)-6-(4-fluorophenyl)-6-(3-hydroxypropyl)-1,3-oxazinan-2-one] | < 100 nM | 95.6% | 94.1% |  | 
4 | C=CC[C@]1(c2ccc(F)cc2)CCN([C@@H](C)c2ccc(C3CC3)cc2)C(=O)O1 [EXAMPLE 123, (R)-6-allyl-3-((S)-1-(4-cyclopropylphenyl)ethyl)-6-(4-fluorophenyl)-1,3-oxazinan-2-one] | < 100 nM | 97.6% |  |  | 
5 | C=CC[C@]1(c2ccc(F)cc2)CCN([C@@H](C)c2ccc(C(=O)OC)cc2)C(=O)O1 [EXAMPLE 124, Methyl 4-((S)-1-((R)-6-allyl-6-(4-fluorophenyl)-2-oxo-1,3-oxazinan-3-yl)ethyl)benzoate] | < 100 nM | 96.8% | 95.2% |  | 
6 | C[C@@H](c1ccc(C2CC2)cc1)N1CC[C@](CCCO)(c2ccc(F)cc2)OC1=O [EXAMPLE 125, (R)-3-((S)-1-(4-cyclopropylphenyl)ethyl)-6-(4-fluorophenyl)-6-(3-hydroxypropyl)-1,3-oxazinan-2-one] | < 100 nM | 94% | 98.3% |  | 
7 | O=C1O[C@@](CCO)(c2ccccc2)CCN1c1cccc(-c2ccc(F)cc2)[n+]1[O-] [EXAMPLE 126, (S)-2-(4-fluorophenyl)-6-(6-(2-hydroxyethyl)-2-oxo-6-phenyl-1,3-oxazinan-3-yl)pyridine 1-oxide] | < 100 nM | 80.7% | 79% |  | 
8 | COC(=O)c1ccc([C@H](C)N2CC[C@](CCCO)(c3ccc(F)cc3)OC2=O)cc1 [EXAMPLE 127, Methyl 4-((S)-1-((R)-6-(4-fluorophenyl)-6-(3-hydroxypropyl)-2-oxo-1,3-oxazinan-3-yl)ethyl)benzoate] | < 100 nM |  | 86.3% |  | 
9 | C=CCC1(c2ccc(F)cc2)CCN(C(C)c2ccc(-c3ccc(F)cc3F)cn2)C(=O)O1 (centres unmarked) [EXAMPLE 131, 6-allyl-3-(1-(5-(2,4-difluorophenyl)pyridin-2-yl)ethyl)-6-(4-fluorophenyl)-1,3-oxazinan-2-one] | > 1000 nM | 11.3% | 6.6% |  | 
10 | O=C1OC(CCO)(c2ccccc2F)CCN1c1cccc(-c2ccc(F)cc2F)[n+]1[O-] (centres unmarked) [EXAMPLE 132, 2-(2,4-difluorophenyl)-6-(6-(2-fluorophenyl)-6-(2-hydroxyethyl)-2-oxo-1,3-oxazinan-3-yl)pyridine 1-oxide] | 100 to 1000 nM | 30.4% |  |  | 
11 | O=C1OC(CCO)(c2ccccc2F)CCN1c1ccc(Cl)c(-c2ccc(F)cc2)n1 (centres unmarked) [EXAMPLE 133, 3-(5-chloro-6-(4-fluorophenyl)pyridin-2-yl)-6-(2-fluorophenyl)-6-(2-hydroxyethyl)-1,3-oxazinan-2-one] | < 100 nM |  |  | 85.8% | 95.4%
12 | O=C1OC(CCO)(c2ccccc2F)CCN1c1ccc(Cl)c(-c2ccc(F)cc2F)n1 (centres unmarked) [EXAMPLE 135, 3-(5-chloro-6-(2,4-difluorophenyl)pyridin-2-yl)-6-(2-fluorophenyl)-6-(2-hydroxyethyl)-1,3-oxazinan-2-one] | < 100 nM | 93.8% | 88.9% |  | 
13 | C[C@@H](c1ccc(C(=O)O)cc1)N1CC[C@](CCCO)(c2ccc(F)cc2)OC1=O [EXAMPLE 142, 4-((S)-1-((R)-6-(4-fluorophenyl)-6-(3-hydroxypropyl)-2-oxo-1,3-oxazinan-3-yl)ethyl)benzoic acid] | 100 to 1000 nM | 27.4% | 34.4% |  | 
14 | C=CC[C@]1(c2ccc(F)cc2)CCN([C@@H](C)c2ccc(C(N)=O)cc2)C(=O)O1 [EXAMPLE 153, 4-((S)-1-((R)-6-allyl-6-(4-fluorophenyl)-2-oxo-1,3-oxazinan-3-yl)ethyl)benzamide] | 100 to 1000 nM | 26.6% | 27% |  | 
15 | C[C@@H](c1ccc(CO)cc1)N1CC[C@](CCCO)(c2ccc(F)cc2)OC1=O [EXAMPLE 154, (R)-6-(4-fluorophenyl)-3-((S)-1-(4-(hydroxymethyl)phenyl)ethyl)-6-(3-hydroxypropyl)-1,3-oxazinan-2-one] | < 100 nM | 79% |  |  | 
16 | C=CC[C@]1(c2ccc(F)cc2)CCN([C@@H](C)c2ccc(C(=O)NC)cc2)C(=O)O1 [EXAMPLE 155, 4-((S)-1-((R)-6-allyl-6-(4-fluorophenyl)-2-oxo-1,3-oxazinan-3-yl)ethyl)-N-methylbenzamide] | 100 to 1000 nM | 45.6% |  |  | 

Row | SMILES | IC50 | inhibition at 0.1111 µM [1] | inhibition at 0.1 µM [2] | inhibition at 0.1 µM [3] | inhibition at 0.1111 µM (read-out: Average % inhibition at 111.1 nM)
17 | C=CC[C@]1(c2ccc(F)cc2)CCN([C@@H](C)c2ccc(C(C)(C)O)cc2)C(=O)O1 [EXAMPLE 156, (R)-6-allyl-6-(4-fluorophenyl)-3-((S)-1-(4-(2-hydroxypropan-2-yl)phenyl)ethyl)-1,3-oxazinan-2-one] | < 100 nM | 93.8% |  |  | 
18 | C=CC[C@@]1(c2cccs2)CCN([C@@H](C)c2ccc(-c3ccc(F)cc3F)cc2)C(=O)O1 [EXAMPLE 165, (S)-6-allyl-3-((S)-1-(2′,4′-difluorobiphenyl-4-yl)ethyl)-6-(thiophen-2-yl)-1,3-oxazinan-2-one] | < 100 nM | 92.9% |  |  | 
19 | C[C@@H](c1ccc(-c2ccc(F)cc2)cc1)N1CC[C@@](CCCO)(c2cccs2)OC1=O [EXAMPLE 166, (S)-3-((S)-1-(4′-fluorobiphenyl-4-yl)ethyl)-6-(3-hydroxypropyl)-6-(thiophen-2-yl)-1,3-oxazinan-2-one] | < 100 nM | 81.8% |  |  | 
20 | CC(O)C[C@]1(c2ccccc2)CCN([C@@H](C)c2ccc(-c3ccc(F)cc3F)cc2)C(=O)O1 (stereo partly drawn) [EXAMPLE 170, (6S)-3-((S)-1-(2′,4′-difluorobiphenyl-4-yl)ethyl)-6-(2-hydroxypropyl)-6-phenyl-1,3-oxazinan-2-one] | < 100 nM |  | 97% |  | 
21 | C[C@@H](c1ccc(-c2ccc(F)cc2F)cc1)N1CC[C@](CC(=O)O)(c2ccc(F)cc2)OC1=O [EXAMPLE 174, 2-((S)-3-((S)-1-(2′,4′-difluorobiphenyl-4-yl)ethyl)-6-(4-fluorophenyl)-2-oxo-1,3-oxazinan-6-yl)acetic acid] | 100 to 1000 nM | 48% |  |  | 
22 | C=CC[C@]1(c2ccc(F)cc2)CCN([C@@H](C)c2ccc(C#N)cc2)C(=O)O1 [EXAMPLE 192, 4-((S)-1-((R)-6-allyl-6-(4-fluorophenyl)-2-oxo-1,3-oxazinan-3-yl)ethyl)benzonitrile] | < 100 nM |  | 70.7% |  | 
23 | COc1ccc([C@H](C)N2CC[C@](CCO)(c3ccc(F)cc3)OC2=O)cc1 [EXAMPLE 195, (S)-6-(4-fluorophenyl)-6-(2-hydroxyethyl)-3-((S)-1-(4-methoxyphenyl)ethyl)-1,3-oxazinan-2-one] | < 100 nM |  | 96.8% |  | 
24 | COCc1ccc([C@H](C)N2CC[C@](CCCO)(c3ccccc3)OC2=O)cc1 [EXAMPLE 199, (R)-6-(3-hydroxypropyl)-3-((S)-1-(4-(methoxymethyl)phenyl)ethyl)-6-phenyl-1,3-oxazinan-2-one] | < 100 nM |  |  | 90.3% | 
25 | C[C@@H](c1ccc(Cl)cc1)N1CC[C@](CCCO)(c2ccc(F)cc2)OC1=O [EXAMPLE 202, (R)-3-((1S)-1-(4-chlorophenyl)ethyl)-6-(4-fluorophenyl)-6-(3-hydroxypropyl)-1,3-oxazinan-2-one] | < 100 nM |  | 95.9% |  | 
26 | CC(O)CC1(C(C)C)CCN([C@@H](C)c2ccc(-c3ccc(F)cc3F)cc2)C(=O)O1 (stereo partly drawn) [EXAMPLE 213, 3-((1S)-1-(2′,4′-difluorobiphenyl-4-yl)ethyl)-6-(2-hydroxypropyl)-6-isopropyl-1,3-oxazinan-2-one] | < 100 nM |  | 79.1% |  | 
27 | C=CC[C@]1(c2ccc(F)cc2)CCN([C@@H](C)c2ccc(-c3nnc(C)o3)cc2)C(=O)O1 [EXAMPLE 215, (R)-6-allyl-6-(4-fluorophenyl)-3-((S)-1-(4-(5-methyl-1,3,4-oxadiazol-2-yl)phenyl)ethyl)-1,3-oxazinan-2-one] | < 100 nM |  | 72.1% |  | 
28 | C[C@@H](c1ccc(-c2cccs2)cc1)N1CC[C@](CCCO)(c2ccccc2)OC1=O [EXAMPLE 216, (R)-6-(3-hydroxypropyl)-6-phenyl-3-((S)-1-(4-(thiophen-2-yl)phenyl)ethyl)-1,3-oxazinan-2-one] | < 100 nM |  | 92.6% |  | 
29 | C=CC[C@]1(c2ccc(F)cc2)CCN([C@@H](C)c2ccc(N3CCOCC3)cc2)C(=O)O1 [EXAMPLE 217, (R)-6-allyl-6-(4-fluorophenyl)-3-((S)-1-(4-morpholinophenyl)ethyl)-1,3-oxazinan-2-one] | < 100 nM |  | 88% |  | 
30 | CC[C@@H](c1ccc(Br)cc1)N1CC[C@](CCCO)(c2ccccc2)OC1=O [EXAMPLE 220, (R)-3-((S)-1-(4-bromophenyl)propyl)-6-(3-hydroxypropyl)-6-phenyl-1,3-oxazinan-2-one] | < 100 nM |  |  | 85.5% | 
31 | CC(O)C[C@]1(c2ccccc2)CCN([C@@H](C)c2ccc(-c3ccc(F)cc3)cc2)C(=O)O1 (stereo partly drawn) [EXAMPLE 224, (6S)-3-((1S)-1-(4′-fluorobiphenyl-4-yl)ethyl)-6-(2-hydroxypropyl)-6-phenyl-1,3-oxazinan-2-one] | < 100 nM |  | 97.3% |  | 
